Earlier results in patent publication US12490952B2, “Combined sub-iliopsoas and subpectineal blocks—for hip surgery” (National Guard Health Affairs, priority 2020, dated 2025).

Conditions: local anesthetic, general background statement

**Q.** Which “duration of action (short-acting / intermediate duration)” value does the source give for `CCN(CC)CCOC(=O)c1ccc(N)cc1Cl` [Chloroprocaine] here?
**A.** Its value is 45 to 90 min.
